In brackets after ≈: the same amount, converted by molar mass.
Columns and labels:
[1] = test system: H9 (acute lymphoblastic leukemia, ALL); test: Leukemia cell growth inhibition, MTT, 72 h (Example 5); type: cell-based, human; conditions: Homo sapiens; 72 h, MTT
Method in brief: (§1)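 An MTT read-out of viable cell concentration follows 72 h incubation (37° C, 5% CO2) of 6000 cells/well in 10% FBS-supplemented 1640 medium with the 5-substituted derivatives at varying concentrations.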

[2] = test system: Jurkat (acute lymphoblastic leukemia, ALL); test: as above; type: cell-based, human; conditions: Homo sapiens, Jurkat; 72 h, MTT
Method in brief: as §1

[3] = test system: K562/adr (drug-resistant, chronic myeloid leukemia, CML); test: as above; type: cell-based, human; conditions: Homo sapiens, K562/Adr; 72 h, MTT
Method in brief: as §1

[4] = test system: Kasumi-1 (acute myeloid leukemia M2 type, AML-M2); test: as above; type: cell-based, human; conditions: Homo sapiens, Kasumi 1
Method in brief: as §1

[5] = test system: NB4 (acute promyelocytic leukemia, AML); test: as above; type: cell-based, human; conditions: Homo sapiens; 72 h, MTT
Method in brief: as §1

[6] = test system: RPMI8226 (multiple myeloma); test: Multiple myeloma cell growth inhibition, MTT, 72 h (Example 6); type: cell-based, human; conditions: Homo sapiens, RPMI-8226; 72 h, MTT, RPMI8226
Method in brief: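 Viability was read by MTT after 72 h of compound exposure at 37 °C, 5% CO2. Each well held 6000 RPMI8226 cells in 1640 medium containing 10% fetal bovine serum, with derivatives added at various concentrations.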

[7] = test system: CaES-17 (esophageal cancer cell); test: Solid tumor cell growth inhibition, MTT, 72 h (Example 7); type: cell-based, human; conditions: Homo sapiens, CaEs17; 72 h, MTT, CAES-17
Method in brief: (§2)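 Cell viability was quantified by MTT 72 h after adding derivatives at different concentrations to 4000 cells/well. Untreated cells served as the 100% reference.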

[8] = test system: Hep-2 (laryngeal carcinoma); test: as above; type: cell-based, human; conditions: Homo sapiens; 72 h, MTT, Hep 2
Method in brief: as §2

MG63 (osteosarcoma) = test: as above; type: cell-based, human; conditions: Homo sapiens; 72 h, MTT, MG-63
Method in brief: as §2

[9] = test system: PANC-1 (pancreatic cancer); test: as above; type: cell-based, human; conditions: Homo sapiens; 72 h, MTT, PANC-1
Method in brief: as §2

PC-3 (prostate cancer) = test: as above; type: cell-based, human; conditions: Homo sapiens; 72 h, MTT, PC-3
Method in brief: as §2

A549 (human lung cancer) = test: as above; type: cell-based; conditions: Homo sapiens; 72 h, MTT, A549
Method in brief: as §2

[10] = test system: Becap37 (human breast cancer cell); test: as above; type: cell-based; conditions: Homo sapiens; 72 h, MTT, Becap-37
Method in brief: as §2

[11] = test system: CNE (nasopharyngeal carcinoma cell); test: as above; type: cell-based; conditions: Homo sapiens
Method in brief: as §2

[12] = test system: Hela (human cervical cancer cell); test: as above; type: cell-based; conditions: Homo sapiens; 72 h, MTT, Hela
Method in brief: as §2

[13] = test system: Huh7 (human liver cancer cell); test: as above; type: cell-based; conditions: Homo sapiens; 72 h, MTT, Huh-7
Method in brief: as §2

[14] = test system: MGC 803 (human gastric cancer cell); test: as above; type: cell-based; conditions: Homo sapiens
Method in brief: as §2

[15] = test system: RKO (human colon adenocarcinoma cell); test: as above; type: cell-based; conditions: Homo sapiens; 72 h, MTT, RKO
Method in brief: as §2

[16] = test system: SK-OV-3 (ovarian cancer cell); test: as above; type: cell-based; conditions: Homo sapiens
Method in brief: as §2

[17] = test system: U87 MG (malignant glioma cell); test: as above; type: cell-based; conditions: Homo sapiens, U-87 MG
Method in brief: as §2

Compound | IC50 [1] | IC90 [1] | IC50 [2] | IC90 [2] | IC50 [3] | IC90 [3] | IC50 [4] | IC90 [4] | IC50 [5] | IC90 [5] | IC50 [6] | IC90 [6] | IC50 [7] | IC90 [7] | IC50 [8] | IC90 [8] | IC50 (MG63 (osteosarcoma)) | IC90 (MG63 (osteosarcoma)) | IC50 [9] | IC90 [9] | further results
COc1ccc2cc1Oc1ccc(cc1)C[C@H]1c3cc(c(OC)cc3CCN1C)Oc1c(OC)c(OC)c(CN3CCCN(C)CC3)c3c1[C@H](C2)N(C)CC3 [BS-TE-356] | 1.54 µg/mL (≈ 2.06 µM) | 2.21 µg/mL (≈ 2.95 µM) | 1.41 µg/mL (≈ 1.88 µM) | 5.41 µg/mL (≈ 7.22 µM) | 0.79 µg/mL (≈ 1.05 µM) | 2.4 µg/mL (≈ 3.2 µM) | 1.24 µg/mL (≈ 1.66 µM) | 3.2 µg/mL (≈ 4.27 µM) | 0.63 µg/mL (≈ 0.841 µM) | 2.17 µg/mL (≈ 2.9 µM) | 0.11 µg/mL (≈ 0.147 µM) | 2.43 µg/mL (≈ 3.24 µM) | 1 µg/mL (≈ 1.34 µM) | 9.26 µg/mL (≈ 12.4 µM) | 3.37 µg/mL (≈ 4.5 µM) | 7.54 µg/mL (≈ 10.1 µM) | 0.49 µg/mL (≈ 0.654 µM) | 0.62 µg/mL (≈ 0.828 µM) | 1.62 µg/mL (≈ 2.16 µM) | 4.58 µg/mL (≈ 6.12 µM) | IC50 (PC-3 (prostate cancer)): 3.4 µg/mL (≈ 4.54 µM); IC90 (PC-3 (prostate cancer)): 5 µg/mL (≈ 6.68 µM); IC50 (A549 (human lung cancer)): 3.5 µg/mL (≈ 4.67 µM); IC90 (A549 (human lung cancer)): 10.5 µg/mL (≈ 14 µM); IC50 [10]: 1.63 µg/mL (≈ 2.18 µM); IC90 [10]: 3 µg/mL (≈ 4.01 µM); IC50 [11]: 0.94 µg/mL (≈ 1.26 µM); IC90 [11]: 2.59 µg/mL (≈ 3.46 µM); IC50 [12]: 1.55 µg/mL (≈ 2.07 µM); IC90 [12]: 5 µg/mL (≈ 6.68 µM); IC50 [13]: 1.3 µg/mL (≈ 1.74 µM); IC90 [13]: 1.67 µg/mL (≈ 2.23 µM); IC50 [14]: 1.26 µg/mL (≈ 1.68 µM); IC90 [14]: 1.88 µg/mL (≈ 2.51 µM); IC50 [15]: 0.51 µg/mL (≈ 0.681 µM); IC90 [15]: 0.91 µg/mL (≈ 1.22 µM); IC50 [16]: 2.19 µg/mL (≈ 2.92 µM); IC90 [16]: 4 µg/mL (≈ 5.34 µM); IC50 [17]: 1.11 µg/mL (≈ 1.48 µM); IC90 [17]: 2.02 µg/mL (≈ 2.7 µM)
COc1ccc2cc1Oc1ccc(cc1)C[C@H]1c3cc(c(OC)cc3CCN1C)Oc1c(OC)c(OC)c(COC(=O)c3ccco3)c3c1[C@H](C2)N(C)CC3 [BS-TE-216] | 2.53 µg/mL (≈ 3.39 µM) | 7.29 µg/mL (≈ 9.76 µM) | 2.52 µg/mL (≈ 3.37 µM) | 8.03 µg/mL (≈ 10.8 µM) | 3.06 µg/mL (≈ 4.1 µM) | 16 µg/mL (≈ 21.4 µM) | 3.15 µg/mL (≈ 4.22 µM) | 8.98 µg/mL (≈ 12 µM) | 1.4 µg/mL (≈ 1.87 µM) | 2 µg/mL (≈ 2.68 µM) | 0.54 µg/mL (≈ 0.723 µM) | 3.14 µg/mL (≈ 4.2 µM) | 5.36 µg/mL (≈ 7.18 µM) | 29.9 µg/mL (≈ 40 µM) | 5.42 µg/mL (≈ 7.26 µM) | 16 µg/mL (≈ 21.4 µM) | 4.5 µg/mL (≈ 6.03 µM) | 8.8 µg/mL (≈ 11.8 µM) | 15.8 µg/mL (≈ 21.1 µM) | > 16 µg/mL | IC50 (PC-3 (prostate cancer)): 4.11 µg/mL (≈ 5.5 µM); IC90 (PC-3 (prostate cancer)): 7.84 µg/mL (≈ 10.5 µM); IC50 (A549 (human lung cancer)): 8.6 µg/mL (≈ 11.5 µM); IC90 (A549 (human lung cancer)): > 16 µg/mL; IC50 [10]: 5.8 µg/mL (≈ 7.77 µM); IC90 [10]: 13 µg/mL (≈ 17.4 µM); IC50 [11]: 3.86 µg/mL (≈ 5.17 µM); IC90 [11]: 13.3 µg/mL (≈ 17.8 µM); IC50 [12]: 3.82 µg/mL (≈ 5.11 µM); IC90 [12]: 10.8 µg/mL (≈ 14.4 µM); IC50 [13]: 2.66 µg/mL (≈ 3.56 µM); IC90 [13]: 4.71 µg/mL (≈ 6.31 µM); IC50 [14]: 2.51 µg/mL (≈ 3.36 µM); IC90 [14]: 4 µg/mL (≈ 5.36 µM); IC50 [15]: 2.21 µg/mL (≈ 2.96 µM); IC90 [15]: 4.67 µg/mL (≈ 6.25 µM); IC50 [16]: 7 µg/mL (≈ 9.37 µM); IC90 [16]: > 16 µg/mL; IC50 [17]: 1.24 µg/mL (≈ 1.66 µM); IC90 [17]: 3.74 µg/mL (≈ 5.01 µM)
COc1ccc2cc1Oc1ccc(cc1)C[C@H]1c3cc(c(OC)cc3CCN1C)Oc1c(OC)c(OC)c(CN3CCCC(CO)C3)c3c1[C@H](C2)N(C)CC3 (stereo partly drawn) [BS-TE-351] | 0.72 µg/mL (≈ 0.96 µM) | 1.58 µg/mL (≈ 2.11 µM) | 1 µg/mL (≈ 1.33 µM) | 5.02 µg/mL (≈ 6.69 µM) | 0.82 µg/mL (≈ 1.09 µM) | 3.11 µg/mL (≈ 4.15 µM) | 0.76 µg/mL (≈ 1.01 µM) | 3.59 µg/mL (≈ 4.79 µM) | 0.7 µg/mL (≈ 0.933 µM) | 1.9 µg/mL (≈ 2.53 µM) | 0.09 µg/mL (≈ 0.12 µM) | 2.43 µg/mL (≈ 3.24 µM) | 1.38 µg/mL (≈ 1.84 µM) | 8.19 µg/mL (≈ 10.9 µM) | 3.07 µg/mL (≈ 4.09 µM) | 8.13 µg/mL (≈ 10.8 µM) | 1.2 µg/mL (≈ 1.6 µM) | 2 µg/mL (≈ 2.67 µM) | 1.87 µg/mL (≈ 2.49 µM) | 7.79 µg/mL (≈ 10.4 µM) | IC50 (PC-3 (prostate cancer)): 1.82 µg/mL (≈ 2.43 µM); IC90 (PC-3 (prostate cancer)): 3.32 µg/mL (≈ 4.43 µM); IC50 (A549 (human lung cancer)): 3.9 µg/mL (≈ 5.2 µM); IC90 (A549 (human lung cancer)): 16 µg/mL (≈ 21.3 µM); IC50 [10]: 1.08 µg/mL (≈ 1.44 µM); IC90 [10]: 4.5 µg/mL (≈ 6 µM); IC50 [11]: 1.32 µg/mL (≈ 1.76 µM); IC90 [11]: 3.84 µg/mL (≈ 5.12 µM); IC50 [12]: 1.25 µg/mL (≈ 1.67 µM); IC90 [12]: 3.61 µg/mL (≈ 4.81 µM); IC50 [13]: 1.3 µg/mL (≈ 1.73 µM); IC90 [13]: 2.41 µg/mL (≈ 3.21 µM); IC50 [14]: 1.49 µg/mL (≈ 1.99 µM); IC90 [14]: 7.42 µg/mL (≈ 9.89 µM); IC50 [15]: 0.45 µg/mL (≈ 0.6 µM); IC90 [15]: 1.25 µg/mL (≈ 1.67 µM); IC50 [16]: 3.5 µg/mL (≈ 4.67 µM); IC90 [16]: > 16 µg/mL; IC50 [17]: 0.28 µg/mL (≈ 0.373 µM); IC90 [17]: 0.67 µg/mL (≈ 0.893 µM)

Reference: patent US9133207B2, “Tetrandrine derivatives with substituted 5-carbon, preparation method and use thereof” (Hangzhou Bensheng Pharmaceutical Co., Ltd., priority 2011, dated 2015)
